The pIC50 is the negative decadic logarithm of the IC50, by convention in mol/L.

Drawing on US20120214822A1 (ASTRAZENECA AB, priority 2007, published 2012), this text covers pIC50 for 27 compounds.

Each structure is given as a SMILES string.

Sequence of human active recombinant p38α-6His tagged (Q16539 whole entry): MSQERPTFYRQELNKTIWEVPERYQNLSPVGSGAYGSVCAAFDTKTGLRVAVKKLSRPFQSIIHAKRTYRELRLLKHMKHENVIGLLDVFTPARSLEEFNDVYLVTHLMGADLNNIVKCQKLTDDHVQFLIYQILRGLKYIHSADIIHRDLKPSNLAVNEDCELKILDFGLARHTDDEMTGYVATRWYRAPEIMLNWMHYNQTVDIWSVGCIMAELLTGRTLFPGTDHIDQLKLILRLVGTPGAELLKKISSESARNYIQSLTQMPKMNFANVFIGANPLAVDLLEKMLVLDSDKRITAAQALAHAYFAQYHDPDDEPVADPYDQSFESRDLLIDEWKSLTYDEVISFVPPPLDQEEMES

The test concerns the target human active recombinant p38α-6His tagged (Homo sapiens, UniProt Q16539). Description: P38 Alpha Enzyme Assay (AlphaScreen, biotinylated-ATF2 substrate).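 Note: 0.5 nM final p38α, reaction started with ATP and run 45 min at 37 °C, phospho-ATF2 read by antibody-based AlphaScreen, background wells quenched with EDTA before ATP.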 The format is biochemical. Particulars: p38 alpha enzyme inhibition; means of replicate determinations; 4 h pre-incubation at 37° C.; SD of assay 0.2-0.3 log units.
Consider `Cc1ccc(C(=O)NC2CC2)cc1-n1ccnc(N[C@@H](c2ccccc2)[C@@H](C)CN2CCC(F)CC2)c1=O` [Example 174, N-Cyclopropyl-3-[3-[[(1R,2S)-3-(4-fluoro-1-piperidinyl)-2-methyl-1-phenylpropyl]amino]-2-oxo-1(2H)-pyrazinyl]-4-methyl-benzamide], for which the pIC50 is listed as 8.9. Regarding `Cc1ccc(C(=O)NC2CC2)cc1-n1ccnc(N[C@@H](c2ccccc2)[C@@H](C)CN2CCC(F)(F)CC2)c1=O` [Example 175, N-Cyclopropyl-3-[3-[[(1R,2S)-3-(4,4-difluoro-1-piperidinyl)-2-methyl-1-phenylpropyl]amino]-2-oxo-1(2H)-pyrazinyl]-4-methyl-benzamide], the pIC50 came to 9. For `Cc1ccc(C(=O)NC2CC2)cc1-n1ccnc(N[C@@H](c2ccccc2)[C@@H](C)CN2CCC(N(C)C)CC2)c1=O` [Example 176, N-Cyclopropyl-3-[3-[[(1R,2S)-3-[4-(dimethylamino)-1-piperidinyl]-2-methyl-1-phenylpropyl]amino]-2-oxo-1(2H)-pyrazinyl]-4-methyl-benzamide] the value was 8.7. The same measure for `Cc1ccc(C(=O)NC2CC2)cc1-n1ccnc(N[C@@H](c2ccccc2)[C@@H](C)CN2CCC(C(F)(F)F)CC2)c1=O` [Example 177, N-Cyclopropyl-4-methyl-3-[3-[[(1R,2S)-2-methyl-1-phenyl-3-[4-(trifluoromethyl)-1-piperidinyl]propyl]amino]-2-oxo-1(2H)-pyrazinyl]-benzamide]: 9. For `Cc1ccc(C(=O)NC2CC2)cc1-n1ccnc(N[C@@H](c2ccccc2)[C@@H](C)CN2CCNC(=O)C2)c1=O` [Example 178, N-Cyclopropyl-4-methyl-3-[3-[[(1R,2S)-2-methyl-3-(3-oxo-1-piperazinyl)-1-phenylpropyl]amino]-2-oxo-1(2H)-pyrazinyl]-benzamide], the pIC50 worked out at 8.8. The same measure for `Cc1ccc(C(=O)NC2CC2)cc1-n1ccnc(N[C@@H](c2ccccc2)[C@@H](C)CN2CCC3(CC2)OCCO3)c1=O` [Example 179, N-Cyclopropyl-3-[3-[[(1R,2S)-3-(1,4-dioxa-8-azaspiro[4.5]dec-8-yl)-2-methyl-1-sphenylpropyl]amino]-2-oxo-1(2H)-pyrazinyl]-4-methyl-benzamide]: 8.9. Consider `Cc1ccc(C(=O)NC2CC2)cc1-n1ccnc(N[C@@H](c2ccccc2)[C@@H](C)CNCC(C)C)c1=O` [Example 182, N-Cyclopropyl-4-methyl-3-[3-[[(1R,2S)-2-methyl-3-[(2-methylpropyl)amino]-1-phenylpropyl]amino]-2-oxo-1(2H)-pyrazinyl]-benzamide], for which the pIC50 came to 9. The same measure for `Cc1ccc(C(=O)NC2CC2)cc1-n1ccnc(N[C@@H](c2ccccc2)[C@@H](C)CNC2CC2)c1=O` [Example 183, N-Cyclopropyl-3-[3-[[(1R,2S)-3-(cyclopropylamino)-2-methyl-1-phenylpropyl]amino]-2-oxo-1(2H)-pyrazinyl]-4-methyl-benzamide]: 9. For the compound `Cc1ccc(C(=O)NC2CC2)cc1-n1ccnc(N[C@@H](c2ccccc2)[C@@H](C)CN2CCC[C@H]2C)c1=O` [Example 184, N-Cyclopropyl-4-methyl-3-[3-[[(1R,2S)-2-methyl-3-[(2R)-2-methyl-1-pyrrolidinyl]-1-phenylpropyl]amino]-2-oxo-1(2H)-pyrazinyl]-benzamide], the pIC50 came to 8.7. Regarding `Cc1ccc(C(=O)NC2CC2)cc1-n1ccnc(N[C@@H](c2ccccc2)[C@@H](C)CN2CCC[C@H](O)C2)c1=O` [Example 185, N-Cyclopropyl-3-[3-[[(1R,2S)-3-[(3S)-3-hydroxy-1-piperidinyl]-2-methyl-1-phenylpropyl]amino]-2-oxo-1(2H)-pyrazinyl]-4-methyl-benzamide], the pIC50 is listed as 9.1.

Turning to `Cc1ccc(C(=O)NC2CC2)cc1-n1ccnc(N[C@@H](c2ccccc2)[C@@H](C)CN2CCC[C@@H](O)C2)c1=O` [Example 186, N-Cyclopropyl-3-[3-[[(1R,2S)-3-[(3R)-3-hydroxy-1-piperidinyl]-2-methyl-1-phenylpropyl]amino]-2-oxo-1(2H)-pyrazinyl]-4-methyl-benzamide], the pIC50 turned out to be 9. Consider `Cc1ccc(C(=O)NC2CC2)cc1-n1ccnc(N[C@@H](c2ccccc2)[C@@H](C)CN2CCNC[C@H]2C)c1=O` [Example 187, N-Cyclopropyl-4-methyl-3-[3-[[(1R,2S)-2-methyl-3-[(2R)-2-methyl-1-piperazinyl]-1-phenylpropyl]amino]-2-oxo-1(2H)-pyrazinyl]-benzamide], for which the pIC50 was 9.8. Consider `Cc1ccc(C(=O)NC2CC2)cc1-n1ccnc(N[C@@H](c2ccccc2)[C@@H](C)CN2CCC3(CC2)CNC3)c1=O` [Example 188, N-Cyclopropyl-3-[3-[[(1R,2S)-3-(2,7-diazaspiro[3.5]non-7-yl)-2-methyl-1-phenylpropyl]amino]-2-oxo-1(2H)-pyrazinyl]-4-methyl-benzamide], for which the pIC50 came out at 9.2. For `Cc1ccc(C(=O)NC2CC2)cc1-n1ccnc(N[C@@H](c2ccccc2)[C@@H](C)CN2CCSCC2)c1=O` [Example 189, N-Cyclopropyl-4-methyl-3-[3-[[(1R,2S)-2-methyl-1-phenyl-3-(4-thiomorpholinyl)propyl]amino]-2-oxo-1(2H)-pyrazinyl]-benzamide], the pIC50 was found to be 9.2. The same measure for `Cc1ccc(C(=O)NC2CC2)cc1-n1ccnc(N[C@@H](c2ccccc2)[C@@H](C)CN2CC[C@H](O)C2)c1=O` [Example 190, N-Cyclopropyl-3-[3-[[(1R,2S)-3-[(3S)-3-hydroxy-1-pyrrolidinyl]-2-methyl-1-phenylpropyl]amino]-2-oxo-1(2H)-pyrazinyl]-4-methyl-benzamide]: 9; for `Cc1ccc(C(=O)NC2CC2)cc1-n1ccnc(N[C@@H](c2ccccc2)[C@@H](C)CN2CCN(C3CCS(=O)(=O)C3)CC2)c1=O` (stereo partly drawn) [Example 191, N-Cyclopropyl-4-methyl-3-[3-[[(1R,2S)-2-methyl-1-phenyl-3-[4-(tetrahydro-1,1-dioxido-3-thienyl)-1-piperazinyl]propyl]amino]-2-oxo-1(2H)-pyrazinyl]-benzamide]: 9.6. Take `Cc1ccc(C(=O)NC2CC2)cc1-n1ccnc(N[C@@H](c2ccccc2)[C@@H](C)CNC(C)(C)CO)c1=O` [Example 193, N-Cyclopropyl-3-[3-[[(1R,2S)-3-[(2-hydroxy-1,1-dimethylethyl)amino]-2-methyl-1-phenylpropyl]amino]-2-oxo-1(2H)-pyrazinyl]-4-methyl-benzamide]: the pIC50 was 9.3. Consider `Cc1ccc(C(=O)NC2CC2)cc1-n1ccnc(N[C@@H](c2ccccc2)[C@@H](C)CN2C[C@@H](C)N[C@@H](C)C2)c1=O` [Example 194, N-Cyclopropyl-3-[3-[[(1R,2S)-3-[(3R,5S)-3,5-dimethyl-1-piperazinyl]-2-methyl-1-phenylpropyl]amino]-2-oxo-1(2H)-pyrazinyl]-4-methyl-benzamide], for which the pIC50 stood at 9.1.

`Cc1ccc(C(=O)NC2CC2)cc1-n1ccnc(N[C@@H](c2ccccc2)[C@@H](C)CNC2CCNCC2)c1=O` [Example 195, N-Cyclopropyl-4-methyl-3-[3-[[(1R,2S)-2-methyl-1-phenyl-3-(4-piperidinylamino)propyl]amino]-2-oxo-1(2H)-pyrazinyl]-benzamide]: the pIC50 is 8.8.

Turning to `Cc1ccc(C(=O)NC2CC2)cc1-n1ccnc(N[C@@H](c2ccccc2)[C@@H](C)CN2CC3CC2CN3C)c1=O` (stereo partly drawn) [Example 196, N-Cyclopropyl-4-methyl-3-[3-[[(1R,2S)-2-methyl-3-(5-methyl-2,5-diazabicyclo[2.2.1]hept-2-yl)-1-phenylpropyl]amino]-2-oxo-1(2H)-pyrazinyl]-benzamide], the pIC50 is reported as 8.9. For `Cc1ccc(C(=O)NC2CC2)cc1-n1ccnc(N[C@@H](c2ccccc2)[C@@H](C)CN2CCCC2(C)C)c1=O` [Example 197, N-Cyclopropyl-3-[3-[[(1R,2S)-3-(2,2-dimethyl-1-pyrrolidinyl)-2-methyl-1-phenylpropyl]amino]-2-oxo-1(2H)-pyrazinyl]-4-methyl-benzamide] the value was 9; for `CCNCCOc1ccccc1C(C)(C)Nc1nccn(-c2cc(C(=O)NC3CC3)ccc2C)c1=O` [Example 198, N-Cyclopropyl-3-[3-[[1-[2-[2-(ethylamino)ethoxy]phenyl]-1-methylethyl]amino]-2-oxo-1(2H)-pyrazinyl]-4-methyl-benzamide], 9.6; for `Cc1ccc(C(=O)NC2CC2)cc1-n1ccnc(NC(C)(C)c2ccccc2OCCN2CCNCC2)c1=O` [Example 199, N-Cyclopropyl-4-methyl-3-[3-[[1-methyl-1-[2-[2-(1-piperazinyl)ethoxy]phenyl]ethyl]amino]-2-oxo-1(2H)-pyrazinyl]-benzamide], 9.1. Consider `Cc1ccc(C(=O)NC2CC2)cc1-n1ccnc(NC(C)(C)c2ccccc2OCCN2CCCCC2)c1=O` [Example 201, N-Cyclopropyl-4-methyl-3-[3-[[1-methyl-1-[2-[2-(1-piperidinyl)ethoxy]phenyl]ethyl]amino]-2-oxo-1(2H)-pyrazinyl]-benzamide], for which the pIC50 was 9.1.

For `Cc1ccc(C(=O)NC2CC2)cc1-n1ccnc(NC(C)(C)c2ccccc2OCCN2CCN(C)CC2)c1=O` [Example 202, N-Cyclopropyl-4-methyl-3-[3-[[1-methyl-1-[2-[2-(4-methyl-1-piperazinyl)ethoxy]phenyl]ethyl]amino]-2-oxo-1(2H)-pyrazinyl]-benzamide], the pIC50 was 9.2. The same measure for `Cc1ccc(C(=O)NC2CC2)cc1-n1ccnc(NC(C)(C)c2ccccc2OCCN2CCOCC2)c1=O` [Example 203, N-Cyclopropyl-4-methyl-3-[3-[[1-methyl-1-[2-[2-(4-morpholinyl)ethoxy]phenyl]ethyl]amino]-2-oxo-1(2H)-pyrazinyl]-benzamide]: 8.9; for `CNCCCCOc1ccccc1C(C)(C)Nc1nccn(-c2cc(C(=O)NC3CC3)ccc2C)c1=O` [Example 204, N-Cyclopropyl-4-methyl-3-[3-[[1-methyl-1-[2-[4-(methylamino)butoxy]phenyl]ethyl]amino]-2-oxo-1(2H)-pyrazinyl]-benzamide]: 9.8.
